Laboratory results published in the supplement of paper PMC10307832.

Legend:
Test in all cases: relative viability (nuclei count vs DMSO), 5 days (fraction); higher = more cells survive
BAY61-3606 + Pictilisib = compound: COC1=C(C=C(C=C1)C2=CC3=NC=CN3C(=N2)NC4=C(C=CC=N4)C(=O)N)OC [BAY61-3606] + CS(=O)(=O)N1CCN(Cc2cc3nc(-c4cccc5[nH]ncc45)nc(N4CCOCC4)c3s2)CC1 [Pictilisib] (partner 1 µM)
How it was run: (§1)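 Relative viability divides the nuclei count in treated wells by that in vehicle wells. Lung cancer cell lines were seeded in 1536-well plates, dosed by pin tool the next day, and fixed and stained after 5 days in one step with final 0.05% Triton X-100, 1% formaldehyde and 1 ug/ml Hoechst. Dosing was a single drug or a fixed anchor-drug dose plus five library-drug doses (not always all listed) in √10 steps, and values are medians of duplicate plates imaged at 4×.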

Doxorubicin + Phenformin = compound: COc1cccc2c1C(=O)c1c(O)c3c(c(O)c1C2=O)C[C@@](O)(C(=O)CO)C[C@@H]3O[C@H]1C[C@H](N)[C@H](O)[C@H](C)O1 [Doxorubicin] + N=C(N)NC(=N)NCCc1ccccc1 [Phenformin] (partner 250 µM)
How it was run: as §1

BAY61-3606 + Trametinib = compound: COC1=C(C=C(C=C1)C2=CC3=NC=CN3C(=N2)NC4=C(C=CC=N4)C(=O)N)OC [BAY61-3606] + CC(=O)Nc1cccc(-n2c(=O)n(C3CC3)c(=O)c3c(Nc4ccc(I)cc4F)n(C)c(=O)c(C)c32)c1 [Trametinib] (partner 0.02 µM)
How it was run: as §1

BAY61-3606 + AZD7762 = compound: COC1=C(C=C(C=C1)C2=CC3=NC=CN3C(=N2)NC4=C(C=CC=N4)C(=O)N)OC [BAY61-3606] + NC(=O)Nc1cc(-c2cccc(F)c2)sc1C(=O)N[C@H]1CCCNC1 [AZD7762] (partner 0.2 µM)
How it was run: as §1

| Cell Line | relative viability (BAY61-3606 + Pictilisib; first compound 0.02 µM) | relative viability (BAY61-3606 + Pictilisib; first compound 0.06325 µM) | relative viability (BAY61-3606 + Pictilisib; first compound 0.2 µM) | relative viability (BAY61-3606 + Pictilisib; first compound 0.6325 µM) | relative viability (BAY61-3606 + Pictilisib; first compound 2 µM) | relative viability (Doxorubicin + Phenformin; first compound 0.001 µM) | relative viability (Doxorubicin + Phenformin; first compound 0.003162 µM) | relative viability (Doxorubicin + Phenformin; first compound 0.01 µM) | relative viability (Doxorubicin + Phenformin; first compound 0.03162 µM) | relative viability (Doxorubicin + Phenformin; first compound 0.1 µM) | relative viability (BAY61-3606 + Trametinib; first compound 0.02 µM) | relative viability (BAY61-3606 + Trametinib; first compound 0.06325 µM) | relative viability (BAY61-3606 + Trametinib; first compound 0.2 µM) | relative viability (BAY61-3606 + Trametinib; first compound 0.6325 µM) | relative viability (BAY61-3606 + Trametinib; first compound 2 µM) | relative viability (BAY61-3606 + AZD7762; first compound 0.02 µM) | relative viability (BAY61-3606 + AZD7762; first compound 0.06325 µM) | relative viability (BAY61-3606 + AZD7762; first compound 0.2 µM) | relative viability (BAY61-3606 + AZD7762; first compound 0.6325 µM) | relative viability (BAY61-3606 + AZD7762; first compound 2 µM) |
| --- | --- | --- | --- | --- | --- | --- | --- | --- | --- | --- | --- | --- | --- | --- | --- | --- | --- | --- | --- | --- |
| NCI-H2228 | 0.432 | 0.34 | 0.421 | 0.505 | 0.341 | 0.284 | 0.312 | 0.242 | 0.107 | 0.118 | 0.523 | 0.439 | 0.476 | 0.531 | 0.365 | – | – | – | – | – |
| NCI-H2009 | 0.897 | 0.849 | 0.851 | 0.751 | 0.52 | 0.483 | 0.482 | 0.481 | 0.414 | 0.275 | 0.318 | 0.229 | 0.378 | 0.303 | 0.206 | – | – | – | – | – |
| NCI-H661 | 0.422 | 0.415 | 0.376 | 0.383 | 0.408 | 0.27 | 0.284 | 0.265 | 0.244 | 0.238 | 0.638 | 0.585 | 0.551 | 0.633 | 0.541 | – | – | – | – | – |
| NCI-H2342 | – | – | – | – | – | 0.638 | 0.54 | 0.527 | 0.552 | 0.553 | 0.899 | 0.912 | 0.855 | 0.712 | 0.953 | 0.459 | 0.496 | 0.416 | 0.726 | 0.586 |
| NCI-H2023 | 0.275 | 0.264 | 0.277 | 0.251 | 0.206 | 0.431 | 0.398 | 0.321 | 0.126 | 0.0808 | 0.571 | 0.64 | 0.518 | 0.587 | 0.413 | – | – | – | – | – |
